Test results: patent US10544143B2, “4-azaindole compounds” (BRISTOL-MYERS SQUIBB COMPANY, priority 2017, dated 2020)

Key:
human TLR8 = human TLR8 (Homo sapiens (Human), UniProt Q9NR97); test: TLR8 inhibition reporter assay (HEK-Blue SEAP); settings: read-out: TLR8 IC50; HEK-Blue cells overexpressing human TLR8, SEAP reporter, R848 15.9 μM;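 note: SEAP driven by IFN-β minimal promoter carrying NF-κB and AP-1 sites, compounds dosed 0.05 nM to 50 µM for 22 h, inhibition scaled between agonist-plus-DMSO and reference-inhibitor wells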
Chain of human TLR8 (Q9NR97 27-1041): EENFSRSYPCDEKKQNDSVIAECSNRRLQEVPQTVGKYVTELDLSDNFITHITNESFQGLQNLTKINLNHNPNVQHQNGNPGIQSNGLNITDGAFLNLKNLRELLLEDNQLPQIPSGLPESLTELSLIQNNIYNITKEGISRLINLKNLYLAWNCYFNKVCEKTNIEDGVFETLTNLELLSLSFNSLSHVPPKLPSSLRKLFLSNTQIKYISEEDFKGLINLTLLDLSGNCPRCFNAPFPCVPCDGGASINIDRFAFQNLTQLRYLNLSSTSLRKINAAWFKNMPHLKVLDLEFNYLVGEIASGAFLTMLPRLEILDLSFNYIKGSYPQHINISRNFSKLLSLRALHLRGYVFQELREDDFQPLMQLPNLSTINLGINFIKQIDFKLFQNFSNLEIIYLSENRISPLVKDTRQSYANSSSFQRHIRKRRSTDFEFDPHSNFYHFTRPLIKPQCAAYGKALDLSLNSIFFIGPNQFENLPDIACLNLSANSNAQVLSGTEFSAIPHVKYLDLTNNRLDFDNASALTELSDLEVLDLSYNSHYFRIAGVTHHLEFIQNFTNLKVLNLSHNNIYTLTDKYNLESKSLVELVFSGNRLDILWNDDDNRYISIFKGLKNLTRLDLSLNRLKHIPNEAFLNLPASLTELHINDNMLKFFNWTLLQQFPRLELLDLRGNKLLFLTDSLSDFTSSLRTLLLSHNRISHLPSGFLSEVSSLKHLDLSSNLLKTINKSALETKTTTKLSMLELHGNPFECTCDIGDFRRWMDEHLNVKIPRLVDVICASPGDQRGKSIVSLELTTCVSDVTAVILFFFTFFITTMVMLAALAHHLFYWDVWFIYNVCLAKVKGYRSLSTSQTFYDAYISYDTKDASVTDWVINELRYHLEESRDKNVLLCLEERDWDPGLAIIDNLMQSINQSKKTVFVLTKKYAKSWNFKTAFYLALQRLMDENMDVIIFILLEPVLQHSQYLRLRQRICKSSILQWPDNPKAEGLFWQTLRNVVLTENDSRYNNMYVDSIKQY

human TLR7 = human TLR7 (Homo sapiens (Human), UniProt Q9NYK1); test: TLR7 inhibition reporter assay (HEK-Blue SEAP); assay type: cell-based; settings: HEK-Blue cells overexpressing human TLR7, SEAP reporter, gardiquimod 7.5 μM
Chain of human TLR7 (Q9NYK1 27-1049): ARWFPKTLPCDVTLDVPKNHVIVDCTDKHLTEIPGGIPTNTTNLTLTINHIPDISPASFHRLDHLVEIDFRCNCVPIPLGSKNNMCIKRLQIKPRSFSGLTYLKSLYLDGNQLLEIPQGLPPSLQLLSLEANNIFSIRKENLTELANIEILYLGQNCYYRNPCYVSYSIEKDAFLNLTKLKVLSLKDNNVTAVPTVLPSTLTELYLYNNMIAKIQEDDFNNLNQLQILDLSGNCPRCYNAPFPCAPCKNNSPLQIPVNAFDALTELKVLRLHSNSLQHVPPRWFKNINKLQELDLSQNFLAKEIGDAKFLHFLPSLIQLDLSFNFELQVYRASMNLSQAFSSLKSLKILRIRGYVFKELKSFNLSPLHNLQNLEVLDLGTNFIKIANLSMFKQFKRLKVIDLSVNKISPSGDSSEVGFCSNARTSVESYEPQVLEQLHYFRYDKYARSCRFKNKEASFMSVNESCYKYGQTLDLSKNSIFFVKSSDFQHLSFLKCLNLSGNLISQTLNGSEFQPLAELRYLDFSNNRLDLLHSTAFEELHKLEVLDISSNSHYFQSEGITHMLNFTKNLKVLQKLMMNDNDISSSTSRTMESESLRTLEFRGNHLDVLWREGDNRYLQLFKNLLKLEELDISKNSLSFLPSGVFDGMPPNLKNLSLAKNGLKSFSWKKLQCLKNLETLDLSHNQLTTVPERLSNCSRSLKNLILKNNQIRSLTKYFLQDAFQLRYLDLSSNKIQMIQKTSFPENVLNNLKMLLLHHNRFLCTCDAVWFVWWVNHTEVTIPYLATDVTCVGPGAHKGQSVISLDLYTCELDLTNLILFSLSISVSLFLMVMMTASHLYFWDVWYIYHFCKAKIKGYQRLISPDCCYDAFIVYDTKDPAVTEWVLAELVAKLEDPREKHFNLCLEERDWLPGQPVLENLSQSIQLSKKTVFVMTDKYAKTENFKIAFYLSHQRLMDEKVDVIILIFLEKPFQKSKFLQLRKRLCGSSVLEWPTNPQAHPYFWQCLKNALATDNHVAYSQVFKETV

human TLR9 = human TLR9 (Homo sapiens (Human), UniProt Q9NR96); test: TLR9 inhibition reporter assay (HEK-Blue SEAP); settings: read-out: TLR9 IC50; HEK-Blue cells overexpressing human TLR9, SEAP reporter, ODN2006 5 nM;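 note: SEAP driven by an IFN-β minimal promoter with NF-κB and AP-1 sites, read after 22 h, compounds dosed 0.05 nM–50 µM, inhibition scaled between agonist plus DMSO and reference-inhibitor wells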
Chain of human TLR9 (Q9NR96 26-1032): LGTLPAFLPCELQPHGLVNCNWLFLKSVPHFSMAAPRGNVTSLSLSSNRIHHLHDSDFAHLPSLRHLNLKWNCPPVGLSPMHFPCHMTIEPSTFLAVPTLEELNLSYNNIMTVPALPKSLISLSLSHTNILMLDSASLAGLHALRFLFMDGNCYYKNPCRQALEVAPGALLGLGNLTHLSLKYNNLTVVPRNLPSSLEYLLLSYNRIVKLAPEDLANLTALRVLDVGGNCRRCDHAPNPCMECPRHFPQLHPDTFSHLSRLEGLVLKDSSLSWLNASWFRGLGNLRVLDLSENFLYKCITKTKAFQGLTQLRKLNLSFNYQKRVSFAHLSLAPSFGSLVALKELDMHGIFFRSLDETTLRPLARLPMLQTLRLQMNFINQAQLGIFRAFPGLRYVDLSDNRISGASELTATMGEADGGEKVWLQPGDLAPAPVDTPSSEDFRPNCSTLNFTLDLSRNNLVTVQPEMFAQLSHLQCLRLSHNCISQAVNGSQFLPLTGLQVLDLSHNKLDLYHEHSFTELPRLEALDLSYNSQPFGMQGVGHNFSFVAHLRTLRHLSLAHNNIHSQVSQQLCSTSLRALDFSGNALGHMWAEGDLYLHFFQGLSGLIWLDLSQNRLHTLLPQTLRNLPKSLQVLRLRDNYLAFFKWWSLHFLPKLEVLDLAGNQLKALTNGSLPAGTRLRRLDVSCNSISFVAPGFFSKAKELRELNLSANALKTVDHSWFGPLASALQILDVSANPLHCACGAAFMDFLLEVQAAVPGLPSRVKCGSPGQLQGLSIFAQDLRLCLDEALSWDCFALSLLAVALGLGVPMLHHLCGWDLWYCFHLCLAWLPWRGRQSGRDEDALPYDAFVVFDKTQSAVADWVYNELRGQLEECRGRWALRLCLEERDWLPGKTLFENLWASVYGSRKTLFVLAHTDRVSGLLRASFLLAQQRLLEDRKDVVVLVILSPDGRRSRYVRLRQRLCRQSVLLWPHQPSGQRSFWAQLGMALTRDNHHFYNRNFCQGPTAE

Compound	IC50 (human TLR8) [nM]	IC50 (human TLR7) [nM]	IC50 (human TLR9) [nM]
Cc1cc(-c2[nH]c3ccc(-c4cnn(C5CCNCC5)c4)nc3c2C(C)C)cn2ncnc12 [Example 735]	61	25	262
Cc1cc(-c2[nH]c3ccc(-c4cnn(CCN5CCOCC5)c4)nc3c2C(C)C)cn2ncnc12 [Example 736]	269	631	> 50000
Cc1c(-c2[nH]c3ccc(N4C[C@@H](C)NC[C@@H]4C)nc3c2C(C)C)cn2ncnc2c1C [Example 737, 6-(5-((2S,5R)-2,5-dimethylpiperazin-1-yl)-3-isopropyl-1H-pyrrolo[3,2-b]pyridin-2-yl)-7,8-dimethyl-[1,2,4]triazolo[1,5-a]pyridine]	0.55	0.59	7770
Cc1c(-c2[nH]c3ccc(N4C[C@@H](C)N(C(=O)CN5CCCC5)C[C@@H]4C)nc3c2C(C)C)cn2ncnc2c1C [Example 738, 1-((2R,5S)-4-(2-(7,8-dimethyl-[1,2,4]triazolo[1,5-a]pyridin-6-yl)-3-isopropyl-1H-pyrrolo[3,2-b]pyridin-5-yl)-2,5-dimethylpiperazin-1-yl)-2-(pyrrolidin-1-yl)ethan-1-one]	0.89	0.46	6230
Cc1c(-c2[nH]c3ccc(N4C[C@@H](C)N(C(=O)CCN5CCCC5)C[C@@H]4C)nc3c2C(C)C)cn2ncnc2c1C [Example 739, 1-((2R,5S)-4-(2-(7,8-dimethyl-[1,2,4]triazolo[1,5-a]pyridin-6-yl)-3-isopropyl-1H-pyrrolo[3,2-b]pyridin-5-yl)-2,5-dimethylpiperazin-1-yl)-3-(pyrrolidin-1-yl)propan-1-one]	1.6	0.85	5320
Cc1c(-c2[nH]c3ccc(N4CC5(CNC5)C4)nc3c2C(C)C)cn2ncnc2c1C [Example 740, 6-(3-isopropyl-5-(2,6-diazaspiro[3.3]heptan-2-yl)-1H-pyrrolo[3,2-b]pyridin-2-yl)-7,8-dimethyl-[1,2,4]triazolo[1,5-a]pyridine]	5.1	2.2	623
Cc1c(-c2[nH]c3ccc(N4CC5(CN(C)C5)C4)nc3c2C(C)C)cn2ncnc2c1C [Example 741, 6-(3-isopropyl-5-(6-methyl-2,6-diazaspiro[3.3]heptan-2-yl)-1H-pyrrolo[3,2-b]pyridin-2-yl)-7,8-dimethyl-[1,2,4]triazolo[1,5-a]pyridine]	6.5	1.9	3030
Cc1c(-c2[nH]c3ccc(N4CC5(CN(CC(=O)N(C)C)C5)C4)nc3c2C(C)C)cn2ncnc2c1C [Example 742, 2-(6-(2-(7,8-dimethyl-[1,2,4]triazolo[1,5-a]pyridin-6-yl)-3-isopropyl-1H-pyrrolo[3,2-b]pyridin-5-yl)-2,6-diazaspiro[3.3]heptan-2-yl)-N,N-dimethylacetamide]	3.1	2.9	4580
Cc1c(-c2[nH]c3ccc(N4CC5(CN(C(=O)CN(C)C)C5)C4)nc3c2C(C)C)cn2ncnc2c1C [Example 743, 1-(6-(2-(7,8-dimethyl-[1,2,4]triazolo[1,5-a]pyridin-6-yl)-3-isopropyl-1H-pyrrolo[3,2-b]pyridin-5-yl)-2,6-diazaspiro[3.3]heptan-2-yl)-2-(dimethylamino)ethan-1-one]	8.4	3.6	1880
CCN1CC2(C1)CN(c1ccc3[nH]c(-c4cn5ncnc5c(C)c4C)c(C(C)C)c3n1)C2 [Example 744, 6-(5-(6-ethyl-2,6-diazaspiro[3.3]heptan-2-yl)-3-isopropyl-1H-pyrrolo[3,2-b]pyridin-2-yl)-7,8-dimethyl-[1,2,4]triazolo[1,5-a]pyridine]	7.1	2	3060
Cc1c(-c2[nH]c3ccc(C4CC5(CNC5)C4)nc3c2C(C)C)cn2ncnc2c1C [Example 745, 6-(3-isopropyl-5-(2-azaspiro[3.3]heptan-6-yl)-1H-pyrrolo[3,2-b]pyridin-2-yl)-7,8-dimethyl-[1,2,4]triazolo[1,5-a]pyridine]	5.8	2.2	2450
Cc1c(-c2[nH]c3ccc(C4CC5(C4)CN(C(=O)CCN(C)C)C5)nc3c2C(C)C)cn2ncnc2c1C [Example 746, 1-(6-(2-(7,8-dimethyl-[1,2,4]triazolo[1,5-a]pyridin-6-yl)-3-isopropyl-1H-pyrrolo[3,2-b]pyridin-5-yl)-2-azaspiro[3.3]heptan-2-yl)-3-(dimethylamino)propan-1-one]	10	1.1	3110
Cc1c(-c2[nH]c3ccc(N4[C@@H]5CC[C@H]4CN(C(=O)CN(C)C)C5)nc3c2C(C)C)cn2ncnc2c1C [Example 747]	4.1	0.59	7380
Cc1c(-c2[nH]c3ccc(N4[C@@H]5CC[C@H]4CN(CCS(C)(=O)=O)C5)nc3c2C(C)C)cn2ncnc2c1C [Example 748]	15	7.5	37900
Cc1c(-c2[nH]c3ccc(N4[C@@H](C)CN(C(=O)CN(C)C)C[C@@H]4C)nc3c2C(C)C)cn2ncnc2c1C [Example 752]	0.53	0.38	10300
Cc1c(-c2[nH]c3ccc(N4[C@@H](C)CN(CCC(N)=O)C[C@@H]4C)nc3c2C(C)C)cn2ncnc2c1C [Example 753]	12	[…]	27900
Cc1c(-c2[nH]c3ccc(N4C[C@H]5C[C@@H](C4)N5CCC(N)=O)nc3c2C(C)C)cn2ncnc2c1C [Example 756]	6	3.9	9060
Cc1c(-c2[nH]c3ccc(N4C[C@H](C)N[C@@H](C)C4)nc3c2C(C)C)cn2ncnc2c1C [Example 757]	1.9	0.7	5220
